ChEMBL document CHEMBL1126376, “Synthesis and activities of 9-pyrrolo-9-deoxoerythromycin a analogs” (1992)
In brackets after ≈: the same amount, converted by molar mass.

What was measured:
Test in all cases: microbe, parasite or virus in culture
Assay type in all cases: functional
[1] = system: Staphylococcus epidermidis
Description: In vitro minimum inhibitory concentration against Staphylococcus epidermidis (MB 5414) was determined

Streptococcus pneumoniae = system: Streptococcus pneumoniae
Description: In vitro minimum inhibitory concentration against Streptococcus pneumoniae (CL 2883) was determined

Haemophilus influenzae = system: Haemophilus influenzae
Description: In vitro minimum inhibitory concentration against Haemophilus influenzae (MB 5363) was determined

Streptococcus pyogenes = system: Streptococcus pyogenes
Description: In vitro minimum inhibitory concentration against Streptococcus pyogenes (MB 2874) was determined

Staphylococcus aureus = system: Staphylococcus aureus
Description: In vitro minimum inhibitory concentration against Staphylococcus aureus (MB 2865) was determined

Enterococcus faecalis = system: Enterococcus faecalis
Description: In vitro minimum inhibitory concentration against Enterococcus faecalis (MB 5407) was determined

Row | SMILES | MIC [1] | MIC (Streptococcus pneumoniae) | MIC (Haemophilus influenzae) | MIC (Streptococcus pyogenes) | MIC (Staphylococcus aureus) | MIC (Enterococcus faecalis)
1 | CC[C@H]1OC(=O)[C@H](C)[C@@H](O[C@H]2C[C@@](C)(OC)[C@@H](O)[C@H](C)O2)[C@H](C)[C@@H](O[C@@H]2O[C@H](C)C[C@H](N(C)C)[C@H]2O)[C@](C)(O)C[C@@H](C)[C@H](n2ccc(C=O)c2)[C@H](C)[C@@H](O)[C@]1(C)O | 32 µg/mL (≈ 39.4 µM) | 64 µg/mL (≈ 78.7 µM) | 64 µg/mL (≈ 78.7 µM) | 32 µg/mL (≈ 39.4 µM) | 32 µg/mL (≈ 39.4 µM) | 64 µg/mL (≈ 78.7 µM)
2 | CC[C@H]1OC(=O)[C@H](C)[C@@H](O[C@H]2C[C@@](C)(OC)[C@@H](O)[C@H](C)O2)[C@H](C)[C@@H](O[C@@H]2O[C@H](C)C[C@H](N(C)C)[C@H]2O)[C@](C)(O)C[C@@H](C)[C@@H](n2cccc2)[C@H](C)[C@@H](O)[C@]1(C)O | 64 µg/mL (≈ 81.5 µM) | 2 µg/mL (≈ 2.55 µM) | > 128 µg/mL |  | 128 µg/mL (≈ 163 µM) | 32 µg/mL (≈ 40.8 µM)
3 | CC[C@H]1OC(=O)[C@H](C)[C@@H](O[C@H]2C[C@@](C)(OC)[C@@H](O)[C@H](C)O2)[C@H](C)[C@@H](O[C@@H]2O[C@H](C)C[C@H](N(C)C)[C@H]2O)[C@](C)(O)C[C@@H](C)[C@H](n2cccc2)[C@H](C)[C@@H](O)[C@]1(C)O | 32 µg/mL (≈ 40.8 µM) | 4 µg/mL (≈ 5.1 µM) | 128 µg/mL (≈ 163 µM) | 4 µg/mL (≈ 5.1 µM) | 64 µg/mL (≈ 81.5 µM) | 64 µg/mL (≈ 81.5 µM)
4 | CC[C@H]1OC(=O)[C@H](C)[C@@H](O[C@H]2C[C@@](C)(OC)[C@@H](O)[C@H](C)O2)[C@H](C)[C@@H](O[C@@H]2O[C@H](C)C[C@H](N(C)C)[C@H]2O)[C@](C)(O)C[C@@H](C)[C@@H](n2ccc(C=O)c2)[C@H](C)[C@@H](O)[C@]1(C)O | 8 µg/mL (≈ 9.84 µM) | 1 µg/mL (≈ 1.23 µM) | 128 µg/mL (≈ 157 µM) |  | 32 µg/mL (≈ 39.4 µM) | 16 µg/mL (≈ 19.7 µM)

Next, values leading:

Row | MIC [1] | MIC (Streptococcus pneumoniae) | MIC (Haemophilus influenzae) | MIC (Streptococcus pyogenes) | MIC (Staphylococcus aureus) | MIC (Enterococcus faecalis) | SMILES
5 | 64 µg/mL (≈ 71 µM) | 16 µg/mL (≈ 17.8 µM) | > 128 µg/mL | 8 µg/mL (≈ 8.88 µM) | 64 µg/mL (≈ 71 µM) | 64 µg/mL (≈ 71 µM) | CC[C@H]1OC(=O)[C@H](C)[C@@H](O[C@H]2C[C@@](C)(OC)[C@@H](O)[C@H](C)O2)[C@H](C)[C@@H](O[C@@H]2O[C@H](C)C[C@H](N(C)C)[C@H]2O)[C@](C)(O)C[C@@H](C)[C@@H](n2ccc(O)c2C(=O)OC(C)(C)C)[C@H](C)[C@@H](O)[C@]1(C)O
6 | 4 µg/mL (≈ 4.44 µM) | 0.5 µg/mL (≈ 0.555 µM) | 32 µg/mL (≈ 35.5 µM) | 0.25 µg/mL (≈ 0.277 µM) | 8 µg/mL (≈ 8.88 µM) | 16 µg/mL (≈ 17.8 µM) | CC[C@H]1OC(=O)[C@H](C)[C@@H](O[C@H]2C[C@@](C)(OC)[C@@H](O)[C@H](C)O2)[C@H](C)[C@@H](O[C@@H]2O[C@H](C)C[C@H](N(C)C)[C@H]2O)[C@](C)(O)C[C@@H](C)[C@H](n2ccc(O)c2C(=O)OC(C)(C)C)[C@H](C)[C@@H](O)[C@]1(C)O
